From patent US12077503B2, “Substituted cyclic amides and their use as herbicides” (FMC CORPORATION, priority 2015, dated 2024)

Tests used:
Assay type in all cases: in vivo
[1] = tested on: ragweed (common ragweed, Ambrosia elatior); assay: Test A postemergence
Source text: (§1) Seeds of plant species selected from barnyardgrass (Echinochloa crus-galli), Kochia (Kochia scoparia), ragweed (common ragweed, Ambrosia elatior), ryegrass, Italian (Italian ryegrass, Lolium multiflorum), crabgrass, large (Digitaria sanguinalis), giant foxtail (Setaria faberii), green foxtail (Setaria viridis), morningglory (Ipomoea spp.), pigweed (Amaranthus retroflexus), velvetleaf (Abutilon theophrasti), wheat (Triticum aestivum), and corn (Zea mays) were planted into a blend of loam soil and sand and treated preemergence with a directed soil spray using test chemicals formulated in anon-phytotoxic solvent mixture which included a surfactant.
(§2) At the same time, plants selected from these crop and weed species and also blackgrass (Alopecurus myosuroides), and Galium (catchweed bedstraw, Galium aparine) were planted in pots containing the same blend of loam soil and sand and treated with postemergence applications of test chemicals formulated in the same manner. Plants ranged in height from 2 to 10 cm and were in the one- to two-leaf stage for the postemergence treatment. Treated plants and untreated controls were maintained in a greenhouse for approximately 10 d, after which time all treated plants were compared to untreated controls and visually evaluated for injury. Plant response ratings, summarized in Table A, are based on a 0 to 100 scale where 0 is no effect and 100 is complete control. A dash (-) response means no test result.

[2] = tested on: wheat (Triticum aestivum); assay: Test A postemergence
Source text: as §1, §2

[3] = tested on: giant foxtail (Setaria faberii); assay: Test A postemergence
Source text: as §1, §2

[4] = tested on: Galium (catchweed bedstraw, Galium aparine); assay: Test A postemergence
Source text: as §1, §2

[5] = tested on: ryegrass, Italian (Italian ryegrass, Lolium multiflorum); assay: Test A postemergence
Source text: as §1, §2

[6] = tested on: blackgrass (Alopecurus myosuroides); assay: Test A postemergence; settings: for Blackgrass plant response rating: visual injury rating on 0 to 100 scale (0 no effect, 100 complete control), approx. 10 d
Source text: as §1, §2

corn (Zea mays) = assay: Test A postemergence
Source text: as §1, §2

[7] = tested on: pigweed (Amaranthus retroflexus); assay: Test A postemergence
Source text: as §1, §2

[8] = tested on: barnyardgrass (Echinochloa crus-galli); assay: Test A postemergence; settings: for Barnyardgrass plant response rating: visual injury rating on 0 to 100 scale (0 no effect, 100 complete control), approx. 10 d
Source text: as §1, §2

Kochia (Kochia scoparia) [9] = assay: Test A postemergence
Source text: as §1, §2

[10] = tested on: ragweed (common ragweed, Ambrosia elatior); assay: Test A preemergence; settings: Preemergence; for Plant response rating, Ragweed: 125 g ai/ha, visual injury after approximately 10 d, 0 to 100 scale where 0 is no effect and 100 is complete control; for Ragweed plant response rating (0 to 100 scale, 0 is no effect, 100 is complete control): 500 g ai/ha, visual injury approx. 10 d
Source text: as §1, §2

[11] = tested on: giant foxtail (Setaria faberii); assay: Test A preemergence; settings: Preemergence; for Plant response rating, Foxtail, Giant: 125 g ai/ha, visual injury after approximately 10 d, 0 to 100 scale where 0 is no effect and 100 is complete control; for Foxtail, Giant plant response rating (0 to 100 scale, 0 is no effect, 100 is complete control): 500 g ai/ha, visual injury approx. 10 d
Source text: as §1, §2

[12] = tested on: ryegrass, Italian (Italian ryegrass, Lolium multiflorum); assay: Test A preemergence; settings: Preemergence; for Plant response rating, Ryegrass, Italian: 125 g ai/ha, visual injury after approximately 10 d, 0 to 100 scale where 0 is no effect and 100 is complete control; for Ryegrass, Italian plant response rating (0 to 100 scale, 0 is no effect, 100 is complete control): 500 g ai/ha, visual injury approx. 10 d
Source text: as §1, §2

[13] = tested on: pigweed (Amaranthus retroflexus); assay: Test A preemergence; settings: Preemergence; for Plant response rating, Pigweed: 125 g ai/ha, visual injury after approximately 10 d, 0 to 100 scale where 0 is no effect and 100 is complete control; for Pigweed plant response rating (0 to 100 scale, 0 is no effect, 100 is complete control): 500 g ai/ha, visual injury approx. 10 d
Source text: as §1, §2

[14] = tested on: barnyardgrass (Echinochloa crus-galli); assay: Test A preemergence; settings: Preemergence; for Plant response rating, Barnyardgrass: 125 g ai/ha, visual injury after approximately 10 d, 0 to 100 scale where 0 is no effect and 100 is complete control; for Barnyardgrass plant response rating (0 to 100 scale, 0 is no effect, 100 is complete control): 500 g ai/ha, visual injury approx. 10 d
Source text: as §1, §2

Kochia (Kochia scoparia) [15] = assay: Test A preemergence; settings: Preemergence; for Plant response rating, Kochia: 125 g ai/ha, visual injury after approximately 10 d, 0 to 100 scale where 0 is no effect and 100 is complete control; for Kochia plant response rating (0 to 100 scale, 0 is no effect, 100 is complete control): 500 g ai/ha, visual injury approx. 10 d
Source text: as §1, §2

[16] = 125 g ai/ha, postemergence, visual rating after approx. 10 d, 0 to 100 scale (0 no effect, 100 complete control)
[17] = Postemergence, 500 g ai/ha, 0 to 100 scale where 0 is no effect and 100 is complete control
[18] = 125 g ai/ha, postemergence, visual injury rating on 0 to 100 scale (0 no effect, 100 complete control), approx. 10 d

Row | Compound | Plant response rating, Ragweed [1, 17] | Plant response rating, Wheat [2, 17] | Plant response rating, Foxtail, Giant [3, 17] | Plant response rating, Galium [4, 17] | Plant response rating, Ryegrass, Italian [5, 17] | Plant response rating, Blackgrass [6, 17] | Plant response rating, Corn (corn (Zea mays); [17]) | Plant response rating, Pigweed [7, 17] | Plant response rating, Barnyardgrass [8, 17] | Plant response rating, Kochia (Kochia (Kochia scoparia) [9]; [17]) | Plant response rating, Ragweed [10] | Ragweed plant response rating (0 to 100 scale, 0 is no effect, 100 is complete control) [10] | Plant response rating, Foxtail, Giant [11] | Foxtail, Giant plant response rating (0 to 100 scale, 0 is no effect, 100 is complete control) [11] | Plant response rating, Ryegrass, Italian [12] | Ryegrass, Italian plant response rating (0 to 100 scale, 0 is no effect, 100 is complete control) [12] | Plant response rating, Pigweed [13] | Pigweed plant response rating (0 to 100 scale, 0 is no effect, 100 is complete control) [13] | Plant response rating, Barnyardgrass [14] | Barnyardgrass plant response rating (0 to 100 scale, 0 is no effect, 100 is complete control) [14] | also measured
1 | CN1CC(c2ccc(Br)cc2)C(C(=O)Nc2ccccc2S(C)(=O)=O)C1=O (centres unmarked) [Compound 565] | 50 | 40 | 90 | 60 | 30 | 60 | 20 | 60 | 90 | 60 | 50 | 50 | 90 | 90 | 0 | 40 | 70 | 80 | 80 | 90 | Plant response rating, Ragweed [1, 16]: 0; Plant response rating, Wheat [2, 16]: 0; Plant response rating, Foxtail, Giant [3, 16]: 80; Plant response rating, Galium [4, 16]: 60; Plant response rating, Ryegrass, Italian [5, 16]: 20; Plant response rating, Blackgrass [6, 16]: 40; Plant response rating, Corn (corn (Zea mays); [16]): 0; Plant response rating, Pigweed [7, 16]: 20; Plant response rating, Barnyardgrass [8, 16]: 80; Plant response rating, Kochia (Kochia (Kochia scoparia) [9]; [16]): 20; Plant response rating, Kochia (Kochia (Kochia scoparia) [15]): 70; Kochia plant response rating (0 to 100 scale, 0 is no effect, 100 is complete control) (Kochia (Kochia scoparia) [15]): 90
2 | O=C(Nc1ccccc1F)C1C(=O)N(CC=CBr)CC1c1cccc(C(F)(F)F)c1 (centres unmarked) [Compound 526] | 0 | 0 | 40 | 0 | 0 | 0 | 0 | 0 | 20 | 0 | 0 | 0 | 70 | 80 | 0 | 0 | 0 | 0 | 0 | 20 | Plant response rating, Ragweed [1, 16]: 0; Plant response rating, Wheat [2, 16]: 0; Plant response rating, Foxtail, Giant [3, 16]: 20; Plant response rating, Galium [4, 16]: 0; Plant response rating, Ryegrass, Italian [5, 16]: 0; Blackgrass plant response rating ([6]; 125 g ai/ha, postemergence): 0; Plant response rating, Corn (corn (Zea mays); [16]): 0; Plant response rating, Pigweed [7, 16]: 0; Barnyardgrass plant response rating ([8]; 125 g ai/ha, postemergence): 10; Plant response rating, Kochia (Kochia (Kochia scoparia) [9]; [16]): 0; Plant response rating, Kochia (Kochia (Kochia scoparia) [15]): 0; Kochia plant response rating (0 to 100 scale, 0 is no effect, 100 is complete control) (Kochia (Kochia scoparia) [15]): 0
3 | O=C1NCC(c2cccc(C(F)(F)F)c2)C1C(=O)Nc1ccccc1O (centres unmarked) [Compound 557] | 0 | 0 | 0 | 0 | 0 | 0 | 0 | 0 | 0 | 0 | 0 | 0 | 0 | 0 | 0 | 0 | 0 | 0 | 0 | 0 | Plant response rating, Ragweed [1, 16]: 0; Plant response rating, Wheat [2, 16]: 0; Plant response rating, Foxtail, Giant [3, 16]: 0; Plant response rating, Galium [4, 16]: 0; Plant response rating, Ryegrass, Italian [5, 16]: 0; Plant response rating, Blackgrass [6, 16]: 0; Plant response rating, Corn (corn (Zea mays); [16]): 0; Plant response rating, Pigweed [7, 16]: 0; Plant response rating, Barnyardgrass [8, 16]: 0; Plant response rating, Kochia (Kochia (Kochia scoparia) [9]; [16]): 0; Plant response rating, Kochia (Kochia (Kochia scoparia) [15]): 0; Kochia plant response rating (0 to 100 scale, 0 is no effect, 100 is complete control) (Kochia (Kochia scoparia) [15]): 0
4 | O=C(Nc1ccccc1F)C1C(=O)N(C2C=CCCC2)CC1c1cccc(C(F)(F)F)c1 (centres unmarked) [Compound 524] | 0 | 0 | 70 | 0 | 0 | 20 | 0 | 0 | 70 | 0 | 0 | 0 | 40 | 70 | 0 | 0 | 0 | 0 | 20 | 40 | Ragweed plant response rating [1, 18]: 0; Wheat plant response rating [2, 18]: 0; Foxtail, Giant plant response rating [3, 18]: 30; Galium plant response rating [4, 18]: 0; Ryegrass, Italian plant response rating [5, 18]: 0; Blackgrass plant response rating ([6]; 125 g ai/ha, postemergence): 0; Corn plant response rating (corn (Zea mays); [18]): 0; Pigweed plant response rating [7, 18]: 0; Barnyardgrass plant response rating ([8]; 125 g ai/ha, postemergence): 30; Kochia plant response rating (Kochia (Kochia scoparia) [9]; [18]): 0; Plant response rating, Kochia (Kochia (Kochia scoparia) [15]): 0; Kochia plant response rating (0 to 100 scale, 0 is no effect, 100 is complete control) (Kochia (Kochia scoparia) [15]): 0
